# Assay results: article PMC4383003, “Transfer hydrogenation catalysis in cells as a new approach to anticancer drug design” (Nature Communications, 2015)
# Key:
# [1] = tested on: A2780 ovarian cancer cells; assay: Ruthenium distribution in cancer cells (cell fractionation, ICP-MS); format: cell-based, human
# Protocol: Cell pellets were obtained as described above, and were fractionated using the Fraction PREP kit from BioVision according to the supplier’s instructions. Each sample was digested overnight in concentrated nitric acid (73%) and the amount of Ru taken up by the cells was determined by ICP–MS. These experiments were all carried out in triplicate and the s.d. were calculated.
# (§1) Supplementary Table 9: Cellular distribution of complex 2 (as % Ru) in A2780 ovarian cancer cells when co-administered with different concentrations of sodium formate (0 and 2 mM). All the experiments were performed as duplicates of triplicates in independent experiments and the error bars were calculated as the standard deviation from the mean.
# Formate Cytosol Membrane Cytoskeleton Nuclei
# CT-DNA = assay: Thermal stability (melting temperature) of CT-DNA by UV-Vis; format: binding, calf; settings: for Tm: CT-DNA, 1:3 complex:base pairs, 2 mM cacodylate pH 7.4, 2 h 310 K; for ΔTm: versus free DNA
# Protocol: Supplementary Table 6: Melting temperature (Tm) of CT-DNA in the presence of 8 or complex 2 (ratio 1:3, complex: base pairs-DNA). The reactions were carried out in cacodylate buffer (2 mM, pH 7.4), and samples incubated for 2 h at 310 K. […]
# a variation in melting temperature between free DNA and DNA in the presence of the corresponding complex. * […] from free DNA using a T-test analysis. ** p < 0.01 from free DNA using a T-test analysis […]
# Thermal stability of CT-DNA
# The melting temperature of CT-DNA in the presence and absence of complex 2 [(p-cym)Ru(TsEn)Cl] was determined by UV-Vis spectroscopy (Supplementary Table 6). Higher melting temperatures indicate increased stabilization of the DNA, which is the effect produced by DNA-intercalators and often by direct metal coordination to […]
# the nucleobases.11 Destabilization of DNA can result in a decrease of the melting […]
# In the presence of complex 8, the melting temperature of CT-DNA increased In agreement with the literature, 12 by 14 K, in 2 mM NaCl, 2 mM cacodylate buffer.
# This increase is due to Ru binding to DNA as well as intercalation. 12 However, upon increasing the chloride concentration by ca. 10x (20 mM NaCl) the melting temperature of CT-DNA in the presence of complex 8, increased only by 7 K. This effect has previously been reported and it is attributed to the partial inhibition of hydrolysis, and, therefore, inhibition of coordination to DNA. 12, 13
# Experiments performed in the presence of complex 2, in 2 mM cacodylate buffer and […]
# NaCl, no decrease of the melting temperature was observed. […]
# A2780 cells [2] = assay: Mitochondrial membrane assay (JC-10 flow cytometry); format: cell-based, human; settings: A2780, complex 2 and sodium formate, 24 h
# Protocol: Analysis of the changes of mitochondrial potential in A2780 cells after exposure to complex 2 and sodium formate was carried out using the Abcam, JC-10 Mitochondrial Membrane Potential Assay kit according to the manufacturer’s instructions. Briefly, 1.0 × 10^6 cells were seeded in six-well plates and left to incubate for 24 h in drug-free medium at 310 K in a humidified atmosphere. […] Supernatants were removed by suction and each well was washed with PBS before detaching the cells using trypsin-EDTA. Staining of the samples was done in flow cytometry tubes protected from light, incubating for 30 min at room temperature. Samples were immediately analysed on a Beckton Dickinson FAC Scan with fluorescence detection. Data were processed using FlowJo software. This experiment included carbonyl cyanide m-chlorophenyl hydrazine as positive control.
# [3] = tested on: NAD^+/NADH ratio in A2780 cells; assay: NAD+/NADH determination in cells; format: cell-based, human
# Protocol: Experiments to determine the NAD^+/NADH ratio in A2780 ovarian cancer cells exposed to complex 2 were carried out using the NAD^+/NADH assay kit from Abcam (ab65348) according to the manufacturer’s instructions. Briefly, A2780 cells were seeded in six-well plates at a density of 1.0 × 10^6 cells per well. […] These concentrations of sodium formate were also used on their own as a second set of negative controls. Drug exposure was allowed for 24 h, after which all supernatants were removed by suction and wells were washed with PBS. Cells were treated with trypsin, detached and counted before being pelleted by centrifugation. Cell pellets were extracted using the NAD/NADH extraction buffer and filtered using a 10-kDa-molecular weight cutoff filter. Samples were split into two, the first half was used to determine total NADt (NAD+NADH), and the second half to determine NADH after heating the samples at 333 K for 30 min. The absorbance at 450 nm was normalized against the protein content in each sample determined using the Bradford assay.
# Experiments to determine the time dependence of the NAD/NADH ratio in A2780 ovarian cancer cells exposed to complex 2 were carried out using the NAD^+/NADH assay kit as described above with the following modifications.
# [4] = tested on: A2780 ovarian cancer cells; assay: IC50 of complex 2 on co-administration with formate; format: cell-based, human; settings: A2780, formate 0 mM
# Protocol: The antiproliferative activity towards A2780 ovarian cancer cells of complex 2 when co-administered with 2 mM sodium formate was determined. These experiments were performed as described above, using a fixed concentration of formate and variable concentrations of the Ru complex. The SRB assay was used to determine cell viability. IC50 values were determined as duplicates of triplicates in two independent sets of experiments and their s.d. were calculated.
# as §1, with “8: Antiproliferative activity” for “9: Cellular distribution”, “2” for “2 (as % Ru)”, “(0, 0.5, 1” for “(0”, “mM) and amount of Ru accumulated by the cells.” for “mM).”
# Formate concentration (mM)
# A2780 cells [5] = assay: ROS determination by flow cytometry; format: cell-based, human; settings: A2780, complex 2 and 2 mM sodium formate, 24 h
# Protocol: Flow cytometry analysis of total induction of ROS in A2780 cells caused by exposure to complex 2 and sodium formate was carried out using the Total ROS detection kit (Enzo Life Sciences) according to the supplier’s instructions. Briefly, 1.0 × 10^6 A2780 cells per well were seeded in a six-well plate. […] After 24 h of drug exposure, supernatants were removed by suction and cells were washed and harvested. Staining was achieved by resuspending the cell pellets in buffer containing the green fluorescent reagent. Cells were analysed in a Becton Dickinson FACScan Flow Cytometer using Ex/Em: 490/525 nm for the oxidative stress detection. Data were processed using Flowjo software. The experiment included cells treated with pyocyanin for 30 min as positive control.
# [6] = A2780, complex 2 4.5 μM, presence and absence of formate (2 mM)
compound,measurement,setting,value
"Cc1ccc(C(C)C)cc1.Cc1ccc(S(=O)(=O)[N-]CCN)cc1.[Cl-].[Ru+2] [Complex 2, [(p-cym)Ru(TsEn)Cl]]",Ru in cytoskeletal fraction,"[1]; A2780, complex 2 4.5 μM",little Ru
same,Ru in cytosolic fraction,[1]; [6],51%
same,Ru in membrane and organelle fraction,[1]; [6],38%
same,Ru in nuclear fraction,[1]; [6],9%
same,%Ru Cytoskeleton,"[1]; A2780, formate 0 mM",1.9 ± 0.5%
same,%Ru Cytosol,"[1]; A2780, formate 0 mM",50.5 ± 2.4%
same,%Ru Membrane,"[1]; A2780, formate 0 mM",41.6 ± 1.4%
same,%Ru Nuclei,"[1]; A2780, formate 0 mM",6.0 ± 2.8%
same,%Ru Cytoskeleton,"[1]; A2780, formate 2 mM",1.0 ± 0.8%
same,%Ru Cytosol,"[1]; A2780, formate 2 mM",52.0 ± 3.0%
same,%Ru Membrane,"[1]; A2780, formate 2 mM",35.7 ± 7.2%
same,%Ru Nuclei,"[1]; A2780, formate 2 mM",11.3 ± 4.5%
same,decrease in the melting temperature of CT-DNA,CT-DNA; 2 mM cacodylate buffer and 2 mM NaCl,-269 °C
same,Tm,CT-DNA; 2 mM NaCl,47.2 ± 1.6 °C
same,Tm,CT-DNA; 20 mM NaCl,54.4 ± 0.7 °C
same,ΔTm,CT-DNA; 2 mM NaCl,-2.4
same,ΔTm,CT-DNA; 20 mM NaCl,-4.9
same,changes in mitochondrial membrane potential,A2780 cells [2],No changes in the mitochondrial membrane potential were observed
same,apparent TOF (TOFap) for conversion of NAD+ to NADH in cells,"[3]; A2780, 4.5 μM complex 2 and 2 mM sodium formate, 0-24 h",0.19 ± 0.01 h⁻¹
same,NAD+/NADH ratio,"[3]; A2780, complex 2, 24 h, 2 mM formate",1.1
same,NAD+/NADH ratio,"[3]; A2780, complex 2, 24 h, no formate",4.5
same,NAD+/NADH ratio,"[3]; A2780, complex 2 and 2 mM sodium formate, after 12 h",0.74
same,NAD+/NADH ratio,"[3]; A2780, complex 2 and 2 mM sodium formate, after 24 h",0.98
same,NAD+/NADH ratio,"[3]; A2780, complex 2 and 2 mM sodium formate, t=4 h",0.83
same,IC50,[4],13.6 ± 0.6 µM
same,levels of reactive oxygen species (ROS) in treated cells,A2780 cells [5],comparable to those arising from treatment with N-acetyl-L-cysteine
